Results published in patent US8367666B2 (priority 2004, dated 2013).
Where a name gives a salt, the structure may show the parent alone. Read-outs that look alike come from different tables or passages of the source.

Key:
[1] = system: respiratory function after cigarette smoke exposure; test: Cigarette smoke exposure, deterioration of guinea pig's breath function (COPD model); assay type: in vivo, Hartley guinea pig; conditions: 30 mg/kg a day, oral, Student t-test
Protocol: The main current smoke of a cigarette with a filter tip commercially available (Highlight, nicotine 1.4 mg content, and tar 17 mg content, Japan Tabaco Inc.) was exposed to the nose and the mouth of a Hartley guinea pig (obtained from Japan SLC Co., Ltd.) at the rate of 30 pieces of the cigarettes a day for five days a week during 30 days with a cigarette smoke exposure device for an animal (manufactured by […] Co., Ltd.). (Wright J L, Churg A. Cigarette smoke causes physiologic and morphologic changes of emphysema in the guinea pig Am. Rev. Respir. Dis. 1990 142:1422-8). […] After 16 to 24 hours had passed from the final cigarette smoke exposure, the trachea incision of the guinea pig was conducted under urethane ([…], i.p.) anesthesia, and a cannula was intubated and installed in a respiratory function measuring device system, a maneuver (manufactured by Baxco Co., Ltd.) for small animals. The respiratory function of the guinea pig was measured according to the protocol of the maneuver. In the medium administered control group and the medicine administered group, the amount of a functional residual air, the increase in the total lung capacity, and the decrease in the dynamic lung compliance by the cigarette smoke exposure were compared and the test of the significant difference was conducted. The data will be shown by the average±the standard deviation. […]

CB2 receptor [2] = target: T1, CB2 receptor (Homo sapiens, UniProt P34972); test: cAMP formation inhibition experiment through a cannabinoid receptor (forskolin stimulation), CB2; assay type: cell-based; parameters: expressed in transfected cells; host or cells: CHO cells
T1 sequence (P34972 whole entry): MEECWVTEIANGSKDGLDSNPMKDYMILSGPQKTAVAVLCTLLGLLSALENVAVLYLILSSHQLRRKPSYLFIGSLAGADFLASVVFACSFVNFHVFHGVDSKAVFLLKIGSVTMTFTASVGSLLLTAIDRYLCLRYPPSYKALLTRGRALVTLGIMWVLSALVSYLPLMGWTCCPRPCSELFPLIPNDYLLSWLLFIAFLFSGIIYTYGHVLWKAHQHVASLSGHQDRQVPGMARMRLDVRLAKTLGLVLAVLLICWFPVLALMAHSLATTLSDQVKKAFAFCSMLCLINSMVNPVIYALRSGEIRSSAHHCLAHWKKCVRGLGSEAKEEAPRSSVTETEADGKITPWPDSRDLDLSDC
Protocol: After the reaction had been stopped by adding 1M hydrochloric acid, the amount of cAMP in the supernatant was measured with the use of Cyclic AMP kit (made by the CIS Diagnostic Corp.).

[3] = system: scratching action induced by Compound 48/80; test: Anti-pruritic activity test by application (Compound 48/80 scratching); assay type: in vivo, mouse (Crj:CD-1 (ICR)); conditions: Mus musculus, topical, read-out: Itching inhibition ratio % (Concentration %)
Outline: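 Female CD-1 (ICR) mice, 6–10 weeks, received 50 μL compound in acetone topically on clipped dorsal skin (acetone alone for controls). 15 min later, 3 μg Compound 48/80 injected intradermally at the site; hind-leg scratching counted over 30 min, 5–7 mice per group, means compared by Welch's t-test.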

CB1 receptor [4] = target: T2, CB1 receptor (Homo sapiens, UniProt P21554); test: cAMP formation inhibition experiment through a cannabinoid receptor (forskolin stimulation), CB1; assay type: cell-based; parameters: expressed in transfected cells; host or cells: CHO cells
T2 sequence (P21554 whole entry): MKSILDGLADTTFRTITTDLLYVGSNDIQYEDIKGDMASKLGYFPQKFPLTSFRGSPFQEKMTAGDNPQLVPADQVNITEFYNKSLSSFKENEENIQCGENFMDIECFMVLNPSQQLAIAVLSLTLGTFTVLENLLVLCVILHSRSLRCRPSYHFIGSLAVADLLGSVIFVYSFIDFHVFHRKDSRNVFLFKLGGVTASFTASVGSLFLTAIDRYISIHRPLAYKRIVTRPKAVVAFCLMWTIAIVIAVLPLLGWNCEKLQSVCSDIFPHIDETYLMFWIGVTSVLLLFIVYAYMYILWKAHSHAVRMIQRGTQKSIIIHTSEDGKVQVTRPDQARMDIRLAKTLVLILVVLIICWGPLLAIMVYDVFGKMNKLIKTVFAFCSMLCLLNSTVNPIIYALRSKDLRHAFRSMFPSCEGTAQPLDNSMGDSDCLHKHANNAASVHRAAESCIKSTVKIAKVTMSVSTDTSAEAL
Outline: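 CHO cells expressing human CB1 were pre-incubated with compound for 15 min, then stimulated with forskolin (final 4 μM) for 20 min. The reaction was stopped with 1 M HCl and supernatant cAMP was measured by cAMP kit.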

CB1 receptor [5] = target: T2, CB1 receptor; test: Human cannabinoid receptor bonding inhibition test ([3H]CP55940), CB1; assay type: binding; parameters: expressed in transfected cells; membrane fraction
CB2 receptor [6] = target: T1, CB2 receptor; test: Human cannabinoid receptor bonding inhibition test ([3H]CP55940), CB2; assay type: binding; parameters: expressed in transfected cells; membrane fraction
[7] = read-out: Agonist activity (nM) CB1
[8] = [3H]CP55940 0.5 nM, membrane preparation of CHO cells expressing CB1, Ki calculated from IC50, read-out: Binding activity (nM) CB1

COC(=O)C(NC(=O)c1cc2c(n(CC=O)c1=O)CCCCCC2)C(C)C (stereo not shown) [(1), methyl 3-methyl-2-{[2-oxo-1-(2-oxo-ethyl)-1,2,5,6,7,8,9,10-octahydro-cycloocta[b]pyridine-3-carbonyl]-amino}-butyrate]
increase in the amount of a functional residual air by the cigarette smoke exposure, difference to medium group [1]: significant difference of P<0.05
increase in the total lung capacity by the cigarette smoke exposure, difference to medium group [1]: significant difference of P<0.05

CC(C)(NC(=O)c1cc2c(n(CCCNS(C)(=O)=O)c1=O)CCCCCC2)C(=O)O
melting point: 183 to 184 °C

COC(=O)NCCCn1c2c(cc(C(=O)NC(C)(C)C(=O)OC)c1=O)CCCCCC2 (as salt: phosphate)
melting point: 135 to 136 °C

CCCCn1c(CCC)c(CC)cc(C(=O)NC2CCCCC2C(=O)O)c1=O (stereo not shown)
melting point: 167 to 169 °C

CC(C)(NC(=O)c1cc2c(n(CC3CCCCC3)c1=O)CCCCCC2)C(=O)NNS(C)(=O)=O [Compound I-052, 1-cyclohexylmethyl-2-oxo-1,2,5,6,7,8,9,10-octahydro-cycloocta[b]pyridine-3-carboxylic acid (1-methylsulfonylhydrazinocarbonyl-1-methyl-ethyl)-amide]
IC50 (CB2 receptor [2]): 8.1 nM
melting point: 177 to 178 °C
inhibition in vivo at 3 % [3]: 80%
IC50 (CB1 receptor [4]; [7]): 49 nM

CN1CCN(C(=O)C(C)(C)NC(=O)c2cc3c(n(CC4CCCCC4)c2=O)CCCCCC3)CC1
melting point: 183 to 184 °C

CCc1c(C)cc(C(=O)NC(CC)(CC)CC(=O)O)c(=O)n1Cc1ccc(F)cc1 [Compound X-216]
IC50 (CB2 receptor [2]): 30 nM
Ki (CB1 receptor [5]; [8]): 1770 nM
Ki (CB2 receptor [6]): 3.3 nM
inhibition in vivo at 1 % [3]: 106%
IC50 (CB1 receptor [4]): > 2000 nM

CC(C)CCn1c2c(cc(C(=O)NC(C(=O)O)c3cccs3)c1=O)CCCCCC2 (stereo not shown) [Compound I-551]
IC50 (CB2 receptor [2]): < 2 nM
Ki (CB1 receptor [5]): 50 nM
Ki (CB2 receptor [6]): 2.2 nM
inhibition in vivo at 2 % [3]: 51%
IC50 (CB1 receptor [4]; [7]): 135 nM

CC(C)(NC(=O)c1cc2c(n(CC3CCCCC3)c1=O)CCCCCC2)C(=O)NN
melting point: 177 to 180 °C

CC(=O)N1CCN(C(=O)C(C)(C)NC(=O)c2cc3c(n(CC4CCCCC4)c2=O)CCCCCC3)CC1 [Compound I-579]
IC50 (CB2 receptor [2]): 27 nM
Ki (CB1 receptor [5]; [8]): 158 nM
Ki (CB2 receptor [6]): 7.3 nM
inhibition in vivo at 3 % [3]: 99%
IC50 (CB1 receptor [4]): 431 nM

COC(=O)C(C)(C)NC(=O)c1cc2c(n(CC3CCCCC3)c1=O)CCCCCC2 [Compound I-084, methyl 2-[(1-cyclohexylmethyl-2-oxo-1,2,5,6,7,8,9,10-octahydro-cycloocta[b]pyridine-3-carbonyl]-amino}-2-methyl-propionate]
IC50 (CB2 receptor [2]): < 2 nM
Ki (CB1 receptor [5]): < 2 nM
Ki (CB2 receptor [6]): < 2 nM
inhibition in vivo at 0.1 % [3]: 60%
IC50 (CB1 receptor [4]; [7]): < 2 nM

CC(C)(NC(=O)c1cc2c(n(CC3CCCCC3)c1=O)CCCCCC2)C(N)=O [Compound I-002]
IC50 (CB2 receptor [2]): 4.4 nM
Ki (CB1 receptor [5]): 48 nM
Ki (CB2 receptor [6]): 7.1 nM
inhibition in vivo at 2.5 % [3]: 68%
IC50 (CB1 receptor [4]; [7]): 11 nM

O=C(O)CC(NC(=O)c1cc2c(n(CC3CCCCC3)c1=O)CCCCCC2)C(F)(F)F (stereo not shown) [II-076]
IC50 (CB2 receptor [2]): 1.2 nM
Ki (CB1 receptor [5]; [8]): > 2000 nM
Ki (CB2 receptor [6]): 41 nM
inhibition in vivo at 3 % [3]: 86%
IC50 (CB1 receptor [4]): > 2000 nM

CCNC(=O)C1CCCN(C(=O)C(C)(C)NC(=O)c2cc3c(n(CC4CCCCC4)c2=O)CCCCCC3)C1 (stereo not shown) [Compound I-595]
IC50 (CB2 receptor [2]): 30 nM
Ki (CB1 receptor [5]; [8]): 354 nM
Ki (CB2 receptor [6]): 9.5 nM
inhibition in vivo at 3 % [3]: 108%
IC50 (CB1 receptor [4]): 1210 nM
